Results reported in patent US12533361B2, “Use of polaprezinc in preparing drug for treating castration-resistant prostate cancer” (Jiangnan University, priority 2021, dated 2026).

Experiments:
L-DTP (EPI) cells = assay: CCK8 survival of drug-resistant L-DTP (EPI) cells, single and combined drugs; type: cell-based; settings: drug-resistant L-DTP (EPI) cells produced by continuously adding EPI for 9 days, optimal concentration of Pola
Experimental: (§1) Furthermore, CCK8 is used and drugs are used in drug-resistant L-DTP cells in a single form and combined form separately.
(§2) After the cells adhered to walls, a series of Pola from high to low concentrations were prepared. A most optimal concentration of the Pola was found. […] Cl values of the L-DTP cells were calculated by Calcusyn software.

PRDX5 = assay: Immunohistochemistry of PRDX5 in prostate tissue sections (Example 4); type: in vivo, mouse; settings: 30 days administration after relapse, Enza 10 mg/Kg, Pola 20 mg/Kg, combined 10 + 20 mg/Kg, NC group 61.7
Text: (§3) The mice were correspondingly gavaged. […] The mice were sacrificed and their prostate cancers were photographed, weighed and subjected to immunohistochemistry.

[1] = system: mouse model of spontaneous prostate cancer with overexpression of C-MYC (Hi-Myc); assay: Hi-Myc mouse model of prostate cancer, prostate weight and HE staining (Example 4); type: in vivo; settings: for Average prostate weight of mice: 30 days administration after relapse caused by drug resistance, gavage once every three days, Enza 10 mg/Kg, Pola 20 mg/Kg, combined 10 + 20 mg/Kg, NC group 100.1 mg; for average prostate weight: 10 mg/Kg gavage once every three days
Text: A mouse model of spontaneous prostate cancer with overexpression of C-MYC (Hi-Myc) was established. […] A part of the mice were sacrificed and their prostate cancers were photographed and weighed. […]. The remaining mice were continuously administered according to the above method for 30 days. […]. […] At this time, the mice were divided into different groups immediately to study effects of combined use of drugs.
as §3

L-DTP (Enza) cells = assay: CCK8 survival of drug-resistant L-DTP (Enza) cells, single and combined drugs; type: cell-based; settings: drug-resistant L-DTP (Enza) cells produced by continuously adding Enza for 9 days, optimal concentration of Pola
Experimental: as §1, §2

[2] = system: mouse model of spontaneous prostate with overexpression of C-MYC (Hi-Myc); assay: Hi-Myc mouse model of prostate cancer, prostate weight (Example 5); type: in vivo; settings: for Average prostate weight of mice: 30 days administration after relapse, gavage once every three days, Enza 30 mg/Kg, Pola 30 mg/Kg, combined Enza 10 mg/Kg + Pola 20 mg/Kg, NC group 105.4 mg
Text: A mouse model of spontaneous prostate with overexpression of C-MYC (Hi-Myc) was established. […] A part of the mice were sacrificed and their prostate cancers were photographed and weighed. […] The remaining mice were continuously administered according to the above method for 30 days. […] The mice were correspondingly gavaged. […] The mice were sacrificed and their prostate cancers were photographed, weighed and subjected to immunohistochemistry.

AR = assay: Immunohistochemistry of AR in prostate tissue sections (Example 4); type: in vivo, mouse; settings: 30 days administration after relapse, Enza 10 mg/Kg, Pola 20 mg/Kg, combined 10 + 20 mg/Kg, NC group 94
Text: as §3

[3] = 10 mg/Kg gavage once every three days for 30 days

Compound | inhibition rate (L-DTP (EPI) cells) | Expression amount of PRDX5/% (PRDX5) [%] | prostate weight compared with the NC group [1, 3] | Average prostate weight of mice [1] [mg] | average prostate weight ([1]; after 30 days of continuous administration, NC group 85.3 mg) [mg] | average prostate weight ([1]; after 60 days of continuous administration, relapse, NC group 95.6 mg) [mg] | inhibition rate (L-DTP (Enza) cells) | prostate weight compared with the NC group [2, 3] | Average prostate weight of mice [2] [mg] | effect on drug-resistant CRPC (prostate weight, in words) ([1]; 30 days administration after relapse, compared with single use / between single groups) | Expression amount of AR/% (AR) [%]
CC(C)(c1ccc(OCC(O)CO)cc1)c1ccc(OCC(O)CCl)cc1 (stereo not drawn) [EPI, EPI-001] | no obvious inhibitory effect |  |  |  |  |  |  |  |  |  | 
CNC(=O)c1ccc(N2C(=S)N(c3ccc(C#N)c(C(F)(F)F)c3)C(=O)C2(C)C)cc1F [Enza, enzalutamide] |  | 93.6 | reduced by half | 83.3 | 41.2 | 78.4 | no obvious inhibitory effect | reduced by half | 85.9 |  | 
NCCC(=O)[N-][C@@H](Cc1c[nH]cn1)C(=O)[O-].[Zn+2] [Pola, polaprezinc] | no obvious inhibition rate | 74.2 |  | 80.625 |  |  | no obvious inhibition rate |  | 81.2 | does not have a significant effect | 70.4
